Source: article PMC3920258, “Experimental Basis for the High Oral Toxicity of Dinophysistoxin 1: A Comparative Study of DSP” (Toxins, 2014)
Read-outs that look alike come from different tables or passages of the source.

Legend:
[1] = system: differentiated Caco-2 cells; experiment: AlamarBlue metabolic activity (viability) assay; format: cell-based, human; settings: 1-1000 nM toxin, 6-72 h; highest 1000 nM for 72 h
Procedure: Metabolic activity assay: Cytotoxic effects of OA, DTX1 and DTX2 (1, 10, 20, 40, 100, 200, 500 and 1000 nM) in differentiated Caco-2 cells have been evaluated in a time-dependent manner by the AlamarBlue metabolic activity assay. Incubation with 0.01% Triton X-100 has been used as a positive control of death. Data are shown in Figure 2 as the percent of fluorescence vs. control.
The viability of the Caco-2 cells was measured by Alamar Blue assay, as previously described. Briefly, the Caco-2 cells were seeded onto 96-well plates at an initial concentration of 25,000 cells/mL and cultured until differentiation (21 days) with medium renewal every 2–3 days. Subsequently, cells were treated with increasing concentrations of OA, DTX1, DTX2 and Triton X-100 in the presence of AlamarBlue; then, fluorescence was measured at 6, 8, 10, 12, 24, 48 and 72 hours of incubation using a FL600 Microplate Fluorescence Reader from BioTek (Winooski, VT, USA) at an excitation wavelength of 530 nm and an emission wavelength of 590 nm. Control cells were considered as having 100% viability, and the results are expressed as the percentage of the fluorescence of treated cells versus the fluorescence of control ones.

[2] = system: differentiated Caco-2 monolayers; experiment: Annexin V-FITC apoptosis detection, confocal imaging; format: cell-based, human; settings: 24 h; for annexin V-FITC fluorescence (apoptosis): 100 nM toxin; for annexin V-FITC fluorescence (apoptosis / cell death), positive controls: 1 μM STP, 100 mM NaBT, 0.005% Triton X-100
From the text: Cell membrane integrity assay: Some fluorescent methods allow a non-destructive evaluation of apoptosis by detecting changes in the structure of cell membranes. Annexin V has a high affinity for phosphatidylserine (PS), a phospholipid component located on the inner surface of the lipid bilayer of the cellular plasma membrane. During early apoptosis processes, this PS migrates to the outer portion, becomes exposed on the surface of the cell and can be detected by binding to annexin V labeled with a fluorescent dye. The annexin V assay was carried out in differentiated Caco-2 monolayers that were treated for 24 h with 100 nM of OA, DTX1, DTX2 or vehicle. Incubation with 0.005% Triton X-100 was used as a positive control of cell death and 1 μM staurosporine (STP) and 100 mM sodium butyrate (NaBT) as inductors of cell apoptosis.
To visualize apoptosis by confocal microscopy in the toxin-treated Caco-2 monolayers, an apoptosis detection kit containing annexin V conjugated with FITC from Immunostep (Salamanca, Spain) was used.
Caco-2 cells were seeded on glass coverslips at an initial concentration of 65 × 10^3 cells/mL and cultured for 21 days until differentiation with medium renewal each 2–3 days. On the 21st day, the cell medium was removed, and the monolayers were treated for 24 h with toxins: OA, DTX1, DTX2, vehicle and positive controls of apoptosis and cellular death (staurosporine (STP), sodium butyrate (NaBT) and Triton-X 100). Immediately after the 24 h of incubation, the medium was removed, and the cells were rinsed 3 times with PBS just before the addition of annexin V-FITC in a proportion of 1:100 diluted in the provided binding buffer. After 15 min of incubation in the dark at room temperature, the cells were rinsed again 3 times with PBS and fixed using paraformaldehyde 2% for 15 min at 4 °C. Finally, another 3 washes with PBS were required prior to mounting the coverslips over microscope glass slides with 10 μL of PBS/Glycerol (1:1) and sealing the edges with nail varnish. Confocal imaging was then carried out with a 40× oil immersion objective of a Nikon Eclipse TE2000-E inverted microscope attached to the C1 laser confocal system and EZ-C1 V.2.20 software (Nikon Instruments Europe B.V., Amstelveen, Netherlands). An argon laser was used to excite the annexin V-FITC conjugated protein (λ excitation = […], λ emission = […]).

[3] = system: differentiated Caco-2 monolayers; experiment: Trans-epithelial electrical resistance (TEER) measurement; format: cell-based, human; settings: 10, 50 and 100 nM; 3, 6, 12 and 24 h
Procedure: We assessed tight junction formation stability through measurements of trans-epithelial electrical resistance (TEER). […] We studied the changes that OA, DTX1 and DTX2 induced in the TEER of the Caco-2 monolayer as a function of time. Differentiated Caco-2 monolayers were incubated with 10, 50 and 100 nM OA, DTX1 and DTX2. TEER was measured immediately before the toxins addition and after 3, 6, 12 and 24 h of incubation with them.
Trans epithelial electric resistance (TEER) was measured across differentiated Caco-2 monolayers, as previously described. The measurements were performed before the treatment with OA, DTX1 and DTX2 (controls), and after each of the incubation times established: 3, 6, 12 and 24 h. Only inserts with TEER higher than 300 Ωcm^2 before the addition of the toxin were used for further testing.

[4] = system: occludin in Caco-2 cells; experiment: Confocal microscopy imaging of occludin; format: cell-based, human; settings: 24 h; for occludin distribution / location: 100 nM toxin; for occludin distribution, positive controls: 0.005% Triton X-100, 100 mM NaBT, 1 μM STP
Procedure: Tight-junction strands are composed of membrane integral proteins, occludin being the best-studied member. We evaluate the integrity of such tight-junctions in Caco-2 cells treated with 100 nM OA, DTX1 and DTX2 for 24 h by labeling occludin. […] (Figure 5C).
Alexa Fluor® 488-labeled anti-occludin mouse monoclonal antibody from Invitrogen (Camarillo, CA, USA) was used for visualizing occludin, as previously described.
Briefly, differentiated Caco-2 monolayers were treated with OA, DTX1, DTX2, vehicle and positive controls of apoptosis and cellular death: staurosporine (STP), sodium butyrate (NaBT) and Triton-X 100. Immediately after treatments, the cells were fixed and incubated with the anti-occludin antibody. Each experimental condition was performed in duplicate. Confocal imaging was then carried out with a 40× oil immersion objective of a Nikon Eclipse TE2000-E inverted microscope attached to the C1 laser confocal system and EZ-C1 V.2.20 software (Nikon Instruments Europe B.V., Amstelveen, Netherlands). An Argon laser was used to excite the Alexa Fluor 488 conjugated antibody.

[5] = system: differentiated Caco-2 monolayers; experiment: Caco-2 permeability assay with microsphere-based immunoassay quantification; format: in vitro ADME, human; settings: 50 and 100 nM; 3, 6, 12 and 24 h
Procedure: With the aim of evaluating the transport of OA, DTX1 and DTX2 through the cell monolayer, we performed the permeability assays as described in Section 4.7. Caco-2 cell monolayers were incubated with OA, DTX1 and DTX2 for 3, 6, 12 and 24 h. […] According to the results, almost all the OA and DTX2 remain in the apical side (Figure 6 A,D and C,F). […] Likewise, in the absence of a cell monolayer (shown as no cells in Figure 6), all the toxins easily flow over inserts.
The permeability assay was carried out as previously described. During the assays, cell monolayer integrity was evaluated by measuring TEER at the start and end of the experiment. Once the incubation with the toxins (OA, DTX1 and DTX2) finished (after 3, 6, 12 or 24 h), the medium was collected from both the insert (donor compartment/apical side of the monolayer) and the well (receiver compartment/basolateral side of the monolayer) for toxin quantification purposes. Previously, we confirmed that the toxins easily flow over the naked inserts.
OA, DTX1 and DTX2 samples taken from the inserts/donor compartments and wells/receptor compartments where quantified, as previously described by Fraga et al.. In order to consider the cross-reactivity of the analyzed derivatives of the okadaic acid, DTX-1 and DTX-2, calibration curves were prepared using calibration solutions with CRMs of DTX-1 and DTX-2. Therefore, the quantification of DTX-1 and DTX-2 samples collected from permeability assays were quantified against their respective calibration curves.

[6] = system: PP2A; settings: cited from earlier work
[7] = system: mice; settings: cited from earlier work
[8] = system: mice; settings: oral, cited from earlier work; for lethal oral dose: mice
[9] = system: Caco-2 monolayers; settings: cited from earlier work
[10] = system: Caco-2 cells; design: method as in PMID 10806372; settings: 1–2 μM; cited from earlier work
[11] = system: Caco-2 cells; design: method as in PMID 21093526; settings: after 24 h; cited from earlier work
[12] = system: mice; settings: oral administration to mice; cited from earlier work
[13] = EFSA, based on mice i.p. toxicity, reference OA

Compound | fluorescence intensity (percent of viability vs. control) [1] | annexin V-FITC fluorescence (apoptosis) [2] | change in TEER values [3] | occludin distribution / location [4] | transport across the Caco-2 monolayer (apical to basolateral) [5] | toxicity equivalent factor (TEF) [7, 13] | annexin V-FITC fluorescence (apoptosis / cell death), positive controls [2] | occludin distribution, positive controls [4] | further results
C=C1C(O)C2OC3(CCC(C=CC(C)C4CC(C)=CC5(OC(CC(C)(O)C(=O)O)CCC5O)O4)O3)CCC2OC1C(O)CC(C)C1CCCC2(OCCCC2C)O1 (centres unmarked) [DTX2, dinophysistoxin-2] | did not show any decrease in fluorescence intensity | Lack of fluorescence | did not induce any change | no modifications on the distribution of occludin | unable to cross the Caco-2 monolayer | 0.6 | – | – | toxicity relative to OA [6]: equal toxicity; toxicity equivalent factor (TEF) ([7]; acute intraperitoneal toxicity in mice): 0.6; minimum lethal dose ([7]; mice, i.p.): 350 μg/kg b.w.
CCCC(=O)[O-].[Na+] [NaBT, sodium butyrate] | – | – | – | – | – | – | evident FITC green fluorescence zones | redistribution of occludin with adjacent diffuse intracellular staining and a granular appearance | –
C=C1[C@@H](O)[C@@H]2O[C@]3(CC[C@H](/C=C/[C@@H](C)[C@@H]4CC(C)=C[C@@]5(O[C@H](C[C@@](C)(O)C(=O)O)CC[C@H]5O)O4)O3)CC[C@H]2O[C@@H]1[C@@H](O)C[C@H](C)[C@H]1O[C@@]2(CCCCO2)CC[C@H]1C [OA, okadaic acid] | did not show any decrease in fluorescence intensity | Lack of fluorescence | did not induce any change | no modifications on the distribution of occludin | unable to cross the Caco-2 monolayer | 1 | – | – | lethal oral dose ([8]; ref 54): 400 μg/kg b.w.; lethal oral dose ([8]; ref 55): 880 μg/kg b.w.; mice dead ([8]; 1000 μg/kg b.w): 0/5; mice dead ([8]; 2000 μg/kg b.w.): 4/5; TEER changes ([9]; 1 to 2 μM, 30 to 90 min): significant TEER reduction; concentration that decreased the TEER of Caco-2 monolayers [9]: ≥ 600 nM; TEER changes ([9]; differentiated Caco-2 monolayers, up to 200 nM for 24h): absence of TEER changes; cell membrane damage and LDH release [10]: no cell membrane damage nor LHD release; applied dose found in the basolateral side [11]: 2%; applied dose trapped into Caco-2 cells [11]: 2%–3; time to repair of damage to the intestinal ultrastructure [12]: ≤ 24 h
CN[C@@H]1C[C@H]2O[C@@](C)([C@@H]1OC)n1c3ccccc3c3c4c(c5c6ccccc6n2c5c31)C(=O)NC4 [STP, staurosporine] | – | – | – | – | – | – | evident FITC green fluorescence zones | redistribution of occludin with adjacent diffuse intracellular staining and a granular appearance | –
Triton X-100 | – | – | – | – | – | – | heavily damaged cell monolayer with noticeable loss of substrate adhesion and fluorescent green dots | redistribution of occludin with adjacent diffuse intracellular staining and a granular appearance | –
